Source: ChEMBL document CHEMBL3885881, “DrugMatrix”

Species on record: Rattus norvegicus
Test: DrugMatrix - Regimen: Daily Repeat
Format: toxicity, organism-based, Sprague-Dawley
Parameters: regimen Daily Repeat, gender Male, age 6-8 weeks
Conditions: in vivo, po, route oral GAVAGE, vehicle .5 % CMC; for ABSOLUTE BASOPHIL / ABSOLUTE EOSINOPHIL / ABSOLUTE LYMPHOCYTE / ABSOLUTE MONOCYTE / ABSOLUTE SEGMENTED NEUTROPHIL / BASOPHIL / EOSINOPHIL / ERYTHROCYTE COUNT / HEMATOCRIT / HEMOGLOBIN / LEUKOCYTE COUNT / LYMPHOCYTE / MEAN CORPUSCULAR HEMOGLOBIN / MEAN CORPUSCULAR HEMOGLOBIN CONCENTRATION / MEAN CORPUSCULAR VOLUME / MONOCYTE / NEUTROPHIL / NUCLEATED RED BLOOD CELLS / PLATELET COUNT: tissue Blood; for ALANINE AMINOTRANSFERASE / ALBUMIN / ALKALINE PHOSPHATASE / ASPARTATE AMINOTRANSFERASE / BLOOD UREA NITROGEN / CARBON DIOXIDE / CHLORIDE / CHOLESTEROL / CREATINE PHOSPHOKINASE / CREATININE / GLUCOSE / LACTATE DEHYDROGENASE / LIPASE / PHOSPHORUS / POTASSIUM / SODIUM / TOTAL BILIRUBIN / TOTAL PROTEIN / URIC ACID: tissue Plasma
[1] = 20 mg/kg, 72 h, dose level Low, time 3 day
[2] = 20 mg/kg, 120 h, dose level Low, time 5 day
[3] = 201 mg/kg, 72 h, dose level High, time 3 day
[4] = 201 mg/kg, 120 h, dose level High, time 5 day

CCCCCCNC(=O)n1cc(F)c(=O)[nH]c1=O [CARMOFUR]
ABSOLUTE BASOPHIL [1]: 0 CELLS/uL
ABSOLUTE EOSINOPHIL [1]: 56 CELLS/uL
ABSOLUTE LYMPHOCYTE [1]: 15579 CELLS/uL
ABSOLUTE MONOCYTE [1]: 284.33 CELLS/uL
ABSOLUTE SEGMENTED NEUTROPHIL [1]: 1314 CELLS/uL
BASOPHIL [1]: 0%
EOSINOPHIL [1]: 0.33%
ERYTHROCYTE COUNT [1]: 5.63 x10E6/uL
HEMATOCRIT [1]: 35.8%
HEMOGLOBIN [1]: 14.23 G/DL
LEUKOCYTE COUNT [1]: 17.23 x10E3/uL
LYMPHOCYTE [1]: 90.33%
MEAN CORPUSCULAR HEMOGLOBIN [1]: 25.27 pg
MEAN CORPUSCULAR HEMOGLOBIN CONCENTRATION [1]: 39.8 G/DL
MEAN CORPUSCULAR VOLUME [1]: 63.6 fL
MONOCYTE [1]: 1.67%
NEUTROPHIL [1]: 7.67%
NUCLEATED RED BLOOD CELLS [1]: 0 /100WBC
PLATELET COUNT [1]: 1328 x10E3/uL
ALANINE AMINOTRANSFERASE [1]: 51 u/L
ALBUMIN [1]: 4.43 G/DL
ALKALINE PHOSPHATASE [1]: 409 u/L
ASPARTATE AMINOTRANSFERASE [1]: 85.67 u/L
BLOOD UREA NITROGEN [1]: 13 mg/dL
CARBON DIOXIDE [1]: 22.67 mmol/L
CHLORIDE [1]: 103.67 MEQ/L
CHOLESTEROL [1]: 70.67 mg/dL
CREATINE PHOSPHOKINASE [1]: 301.67 u/L
CREATININE [1]: 0.18 mg/dL
GLUCOSE [1]: 161 mg/dL
LACTATE DEHYDROGENASE [1]: 305.33 u/L
LIPASE [1]: 9 u/L
PHOSPHORUS [1]: 12.3 mg/dL
POTASSIUM [1]: 6.94 MEQ/L
SODIUM [1]: 146.4 MEQ/L
TOTAL BILIRUBIN [1]: 0.17 mg/dL
TOTAL PROTEIN [1]: 6.13 G/DL
URIC ACID [1]: 1.63 mg/dL
ABSOLUTE BASOPHIL [2]: 0 CELLS/uL
ABSOLUTE EOSINOPHIL [2]: 222.67 CELLS/uL
ABSOLUTE LYMPHOCYTE [2]: 15078.33 CELLS/uL
ABSOLUTE MONOCYTE [2]: 213.33 CELLS/uL
ABSOLUTE SEGMENTED NEUTROPHIL [2]: 719 CELLS/uL
BASOPHIL [2]: 0%
EOSINOPHIL [2]: 1.33%
ERYTHROCYTE COUNT [2]: 5.39 x10E6/uL
HEMATOCRIT [2]: 34.47%
HEMOGLOBIN [2]: 13.83 G/DL
LEUKOCYTE COUNT [2]: 16.23 x10E3/uL
LYMPHOCYTE [2]: 93%
MEAN CORPUSCULAR HEMOGLOBIN [2]: 25.67 pg
MEAN CORPUSCULAR HEMOGLOBIN CONCENTRATION [2]: 40.1 G/DL
MEAN CORPUSCULAR VOLUME [2]: 64 fL
MONOCYTE [2]: 1.33%
NEUTROPHIL [2]: 4.33%
NUCLEATED RED BLOOD CELLS [2]: 0 /100WBC
PLATELET COUNT [2]: 1330.33 x10E3/uL
ALANINE AMINOTRANSFERASE [2]: 47.67 u/L
ALBUMIN [2]: 4.3 G/DL
ALKALINE PHOSPHATASE [2]: 311 u/L
ASPARTATE AMINOTRANSFERASE [2]: 74.33 u/L
BLOOD UREA NITROGEN [2]: 14 mg/dL
CARBON DIOXIDE [2]: 23 mmol/L
CHLORIDE [2]: 103.33 MEQ/L
CHOLESTEROL [2]: 73.33 mg/dL
CREATINE PHOSPHOKINASE [2]: 245.33 u/L
CREATININE [2]: 0.12 mg/dL
GLUCOSE [2]: 149 mg/dL
LACTATE DEHYDROGENASE [2]: 124.33 u/L
LIPASE [2]: 8 u/L
PHOSPHORUS [2]: 12.67 mg/dL
POTASSIUM [2]: 6.45 MEQ/L
SODIUM [2]: 145.27 MEQ/L
TOTAL BILIRUBIN [2]: 0.23 mg/dL
TOTAL PROTEIN [2]: 6.07 G/DL
URIC ACID [2]: 1.57 mg/dL
ABSOLUTE BASOPHIL [3]: 0 CELLS/uL
ABSOLUTE EOSINOPHIL [3]: 0 CELLS/uL
ABSOLUTE LYMPHOCYTE [3]: 13152.33 CELLS/uL
ABSOLUTE MONOCYTE [3]: 146.67 CELLS/uL
ABSOLUTE SEGMENTED NEUTROPHIL [3]: 901 CELLS/uL
BASOPHIL [3]: 0%
EOSINOPHIL [3]: 0%
ERYTHROCYTE COUNT [3]: 5.67 x10E6/uL
HEMATOCRIT [3]: 35.7%
HEMOGLOBIN [3]: 14.47 G/DL
LEUKOCYTE COUNT [3]: 14.2 x10E3/uL
LYMPHOCYTE [3]: 92.67%
MEAN CORPUSCULAR HEMOGLOBIN [3]: 25.5 pg
MEAN CORPUSCULAR HEMOGLOBIN CONCENTRATION [3]: 40.53 G/DL
MEAN CORPUSCULAR VOLUME [3]: 62.97 fL
MONOCYTE [3]: 1%
NEUTROPHIL [3]: 6.33%
NUCLEATED RED BLOOD CELLS [3]: 0 /100WBC
PLATELET COUNT [3]: 1275.33 x10E3/uL
ALANINE AMINOTRANSFERASE [3]: 52.67 u/L
ALBUMIN [3]: 4.37 G/DL
ALKALINE PHOSPHATASE [3]: 367 u/L
ASPARTATE AMINOTRANSFERASE [3]: 69 u/L
BLOOD UREA NITROGEN [3]: 23.33 mg/dL
CARBON DIOXIDE [3]: 21 mmol/L
CHLORIDE [3]: 102.33 MEQ/L
CHOLESTEROL [3]: 81 mg/dL
CREATINE PHOSPHOKINASE [3]: 192.67 u/L
CREATININE [3]: 0.27 mg/dL
GLUCOSE [3]: 160 mg/dL
LACTATE DEHYDROGENASE [3]: 198.33 u/L
LIPASE [3]: 9.33 u/L
PHOSPHORUS [3]: 12 mg/dL
POTASSIUM [3]: 6.3 MEQ/L
SODIUM [3]: 145.27 MEQ/L
TOTAL BILIRUBIN [3]: 0.17 mg/dL
TOTAL PROTEIN [3]: 6.33 G/DL
URIC ACID [3]: 1.77 mg/dL
ABSOLUTE BASOPHIL [4]: 0 CELLS/uL
ABSOLUTE EOSINOPHIL [4]: 0 CELLS/uL
ABSOLUTE LYMPHOCYTE [4]: 4570 CELLS/uL
ABSOLUTE MONOCYTE [4]: 201.5 CELLS/uL
ABSOLUTE SEGMENTED NEUTROPHIL [4]: 2778.5 CELLS/uL
BASOPHIL [4]: 0%
EOSINOPHIL [4]: 0%
ERYTHROCYTE COUNT [4]: 8.62 x10E6/uL
HEMATOCRIT [4]: 52.2%
HEMOGLOBIN [4]: 20.65 G/DL
LEUKOCYTE COUNT [4]: 7.55 x10E3/uL
LYMPHOCYTE [4]: 62.5%
MEAN CORPUSCULAR HEMOGLOBIN [4]: 24 pg
MEAN CORPUSCULAR HEMOGLOBIN CONCENTRATION [4]: 39.6 G/DL
MEAN CORPUSCULAR VOLUME [4]: 60.55 fL
MONOCYTE [4]: 2.5%
NEUTROPHIL [4]: 35%
NUCLEATED RED BLOOD CELLS [4]: 0 /100WBC
PLATELET COUNT [4]: 1522.5 x10E3/uL
ALANINE AMINOTRANSFERASE [4]: 43.5 u/L
ALBUMIN [4]: 5.05 G/DL
ALKALINE PHOSPHATASE [4]: 216 u/L
ASPARTATE AMINOTRANSFERASE [4]: 414 u/L
BLOOD UREA NITROGEN [4]: 219.5 mg/dL
CARBON DIOXIDE [4]: 19 mmol/L
CHLORIDE [4]: 115 MEQ/L
CHOLESTEROL [4]: 78.5 mg/dL
CREATINE PHOSPHOKINASE [4]: 2230 u/L
CREATININE [4]: 0.29 mg/dL
GLUCOSE [4]: 164 mg/dL
LACTATE DEHYDROGENASE [4]: 1956 u/L
LIPASE [4]: 24.5 u/L
PHOSPHORUS [4]: 20.35 mg/dL
POTASSIUM [4]: 5.82 MEQ/L
SODIUM [4]: 154.1 MEQ/L
TOTAL BILIRUBIN [4]: 0.6 mg/dL
TOTAL PROTEIN [4]: 6.6 G/DL
URIC ACID [4]: 4.25 mg/dL
